From patent US20240245711A1, “A 19-NOR C3,3-DISUBSTITUTED C21-N-PYRAZOLYL STEROID FOR THE TREATMENT OF MAJOR DEPRESSIVE DISORDER” (Sage Therapeutics, Inc., priority 2021, published 2024)
Several values for one entry are separate records, joined by “and”; a condition that tells them apart may be missing. Equal entries are not always repeated.

System: adult subjects with Major Depressive Disorder
Assay: Phase 3 open-label 1-year study: HAM-D total score, response and remission
Format: in vivo, human
Conditions: for HAM-D Total Score, Mean Percent Change from Period-Specific Baseline / HAM-D Total Score, Mean Change from Period-Specific Baseline: Low Dose Cohort (FAS); for HAM-D Remission / HAM-D Response / HAM-D total score, Mean % CFB ± SD / HAM-D total score, Mean CFB ± SD: Study Period 1, safety set, 30 mg Cohort (N = 725)
Source text: Secondary Objective: To assess the need for re-treatment with Compound (1) following initial treatment in adults with MDD currently experiencing an MDE over a 1-year period, and to assess the response of initial treatment and re-treatment(s) with Compound (1) following an initial 2-week treatment period in adults with MDD currently experiencing an MDE over a 1-year period.
Secondary Endpoints: The need for re-treatment with Compound (1) as assessed by: time to first re-treatment (Kaplan-Meier curves), number of subjects achieving the requirements for re-treatment, number of re-treatment cycles for each subject, the response of initial treatment and/or re-treatment as assessed by: change from baseline in the 17-item Hamilton Rating Scale for Depression (HAM-D) total score at the end of each 14-day treatment (initial and/or re-treatment) period, HAM-D response at the end of each 14-day treatment (initial and/or re-treatment) period, defined as a ≥50% reduction in HAM-D score from baseline, HAM-D remission at the end of each 14-day treatment (initial and/or re-treatment) period, defined as HAM-D total score≤7, Clinical Global Impression-Improvement (CGI-I) response, defined as “much improved” or “very much improved”, at the end of each 14-day treatment (initial and/or re-treatment) period, change from baseline in Clinical Global Impression-Severity (CGI-S) score at the end of each 14-day treatment (initial and/or re-treatment) period.
Study Population: Subjects were 18-75 years old, diagnosed with major depressive disorder (MDD) with a MADRS total score of ≥28 and a HAM-D total score of ≥20 at Screening and Day 1 (prior to dosing).
Treatment Groups: The 30 mg and 50 mg dose groups were separated by time of enrollment. The study is comprised of two cohorts: one with Compound (1) 30 mg as a starting dose (30 mg Cohort: n=725), an initial cohort with Compound (1) 50 mg as a starting dose (50 mg Cohort: n=199). A patient receiving Compound (1) 30 mg could be dose reduced to 20 mg and patients receiving Compound (1) 50 mg could be dose reduced to 40 mg (based on tolerability). In all cohorts, Compound (1) is self-administered by patients as an oral therapy once nightly with food for 14 days.
Eligible subjects were given Compound (1)—to be taken at home in the evening with meal.
The cohorts pertaining to the different doses that the subjects received were defined as following: • 50 mg cohort: This cohort includes subjects who have initiated treatment with 50 mg and received re-treatment with 50 mg only. • 30 mg cohort: This cohort includes subjects who have initiated treatment with 30 mg regardless of the dose they have received in re-treatments. • Low dose cohort: This cohort includes subjects who have initiated treatment with 30 mg and received re-treatment with 30 mg only. • Dose switch cohort: This cohort includes subjects who have received initial treatment with 30 mg and at least one subsequent re-treatment with 50 mg. • Study Period X: starts on the date of the first dose of Compound (1) in cycle X and goes up to one day prior to the first dose of the next cycle. In some embodiments, X is any number from 1 to 5. • Treatment Period X: starts on the date of the first dose of Compound (1) in cycle X and goes up to one day after the last dose in cycle X. In some embodiments, X is any number from 1 to 5. • Treatment Cycle X: starts on the date of the first dose of Compound (1) in cycle X and goes up to 14 days after the last dose in cycle X. The treatment cycles may be denoted as C1-C5. • Observation period X: starts the day after Treatment Cycle X ends and goes up to one day prior to the start of next treatment cycle. In some embodiments, X is any number from 1 to 5.
Analysis Sets: The safety set was defined as all subjects who were administered study drug. The period-specific safety set includes subjects in the safety set who were administered study drug in the corresponding treatment cycle. […]

[1] = subjects dosed in Cycle 4 (43), Cycle 1, Day 28
[2] = subjects dosed in Cycle 4 (43), Cycle 2, Day 15
[3] = subjects dosed in Cycle 4 (43), Cycle 2, Day 28
[4] = subjects dosed in Cycle 4 (43), Cycle 3, Day 15
[5] = subjects dosed in Cycle 4 (43), Cycle 3, Day 28
[6] = subjects dosed in Cycle 4 (43), Cycle 4, Day 15
[7] = subjects dosed in Cycle 4 (43), Cycle 4, Day 28
[8] = subjects dosed in Cycle 5 (20), Cycle 1, Day 15
[9] = subjects dosed in Cycle 5 (20), Cycle 1, Day 28
[10] = subjects dosed in Cycle 5 (20), Cycle 2, Day 15
[11] = subjects dosed in Cycle 5 (20), Cycle 2, Day 28
[12] = subjects dosed in Cycle 5 (20), Cycle 3, Day 15
[13] = subjects dosed in Cycle 5 (20), Cycle 3, Day 28
[14] = subjects dosed in Cycle 5 (20), Cycle 4, Day 15
[15] = subjects dosed in Cycle 5 (20), Cycle 4, Day 28
[16] = subjects dosed in Cycle 5 (20), Cycle 5, Day 28

Structure (SMILES): C[C@@]1(O)CC[C@H]2[C@H](CC[C@@H]3[C@@H]2CC[C@]2(C)[C@@H](C(=O)Cn4cc(C#N)cn4)CC[C@@H]32)C1 [Compound (1), 1-(2-((3R,5R,8R,9R,10S,13S,14S,17S)-3-hydroxy-3,13-dimethylhexadecahydro-1H-cyclopenta[a]phenanthren-17-yl)-2-oxoethyl)-1H-pyrazole-4-carbonitrile]
- HAM-D Total Score, Mean Percent Change from Period-Specific Baseline (subjects dosed in Cycle 4 (43), Cycle 1, Day 15): −68.2
- HAM-D Total Score, Mean Change from Period-Specific Baseline [1]: −13.0
- HAM-D Total Score, Mean Percent Change from Period-Specific Baseline [1]: −52.0
- HAM-D Total Score, Mean Change from Period-Specific Baseline [2]: −12.1
- HAM-D Total Score, Mean Percent Change from Period-Specific Baseline [2]: −49.6
- HAM-D Total Score, Mean Change from Period-Specific Baseline [3]: −10.4
- HAM-D Total Score, Mean Percent Change from Period-Specific Baseline [3]: −42.4
- HAM-D Total Score, Mean Change from Period-Specific Baseline [4]: −12.7
- HAM-D Total Score, Mean Percent Change from Period-Specific Baseline [4]: −54.1
- HAM-D Total Score, Mean Change from Period-Specific Baseline [5]: −11.1
- HAM-D Total Score, Mean Percent Change from Period-Specific Baseline [5]: −46.9
- HAM-D Total Score, Mean Change from Period-Specific Baseline [6]: −11.7
- HAM-D Total Score, Mean Percent Change from Period-Specific Baseline [6]: −50.0
- HAM-D Total Score, Mean Change from Period-Specific Baseline [7]: −9.9
- HAM-D Total Score, Mean Percent Change from Period-Specific Baseline [7]: −41.9
- HAM-D Total Score, Mean Change from Period-Specific Baseline [8]: −16.5
- HAM-D Total Score, Mean Percent Change from Period-Specific Baseline [8]: −66.9
- HAM-D Total Score, Mean Change from Period-Specific Baseline [9]: −11.3
- HAM-D Total Score, Mean Percent Change from Period-Specific Baseline [9]: −45.7
- HAM-D Total Score, Mean Change from Period-Specific Baseline [10]: −11.1
- HAM-D Total Score, Mean Percent Change from Period-Specific Baseline [10]: −45.1
- HAM-D Total Score, Mean Change from Period-Specific Baseline [11]: −9.2
- HAM-D Total Score, Mean Percent Change from Period-Specific Baseline [11]: −37.8
- HAM-D Total Score, Mean Change from Period-Specific Baseline [12]: −11.9
- HAM-D Total Score, Mean Percent Change from Period-Specific Baseline [12]: −51.5
- HAM-D Total Score, Mean Change from Period-Specific Baseline [13]: −10.7
- HAM-D Total Score, Mean Percent Change from Period-Specific Baseline [13]: −46.1
- HAM-D Total Score, Mean Change from Period-Specific Baseline [14]: −11.6
- HAM-D Total Score, Mean Percent Change from Period-Specific Baseline [14]: −48.9
- HAM-D Total Score, Mean Change from Period-Specific Baseline [15]: −7.7
- HAM-D Total Score, Mean Percent Change from Period-Specific Baseline [15]: −32.6
- HAM-D Total Score, Mean Change from Period-Specific Baseline (subjects dosed in Cycle 5 (20), Cycle 5, Day 15): 17, −11.6/—
- HAM-D Total Score, Mean Change from Period-Specific Baseline [16]: −7.1
- HAM-D Total Score, Mean Percent Change from Period-Specific Baseline [16]: −30.6
- Withdrawn in Treatment Cycle 1: Exit for non-response, n (%) (Low Dose Cohort (n = 645)): 146 (22.6%)
- HAM-D Remission (Day 8): (17.8%)
- HAM-D Response (Day 8): 295/704 (41.9%)
- HAM-D total score, Mean % CFB ± SD (Day 8): −42.9 ± 25.68%
- HAM-D total score, Mean CFB ± SD (Day 8): −10.9 ± 6.75
- HAM-D total score, Mean % CFB ± SD (Day 15): −60.0 ± 25.61%
- HAM-D total score, Mean CFB ± SD (Day 15): −15.2±7.1 and −15.2 ± 7.07
- HAM-D Remission (Day 28): (32.6%)
- HAM-D Response (Day 28): 372/681 (54.6%)
- HAM-D total score, Mean % CFB ± SD (Day 28): −51.9 ± 29.96%
- HAM-D total score, Mean CFB ± SD (Day 28): −13.3 ± 8.07
- HAM-D Remission (Day 70): (30.0%)
- HAM-D Response (Day 70): 193/384 (50.3%)
- HAM-D total score, Mean % CFB ± SD (Day 70): −46.6 ± 34.25%
- HAM-D total score, Mean CFB ± SD (Day 70): −12.1 ± 9.12
- HAM-D Remission (Day 126): (47.3%)
